According to PubChem BioAssay AID330 (DTP/NCI, 2004):
Where “and” joins values, the source holds several entries; their conditions need not be identical. Equal values may be shown once. Inconclusive results and toxic doses are left out. How the source made its calls: active means survival T/C of 150% or more; inactive means T/C below 125% in these data.

Tested on: P388 leukemia ip, CD2F1 mice, survival T/C
Test: NCI In Vivo Anticancer Drug Screen. Data for tumor model P388 Leukemia (intraperitoneal) in CD2F1 (CDF1) mice
Settings: endpoint: median survival time, higher = longer survival
Method in brief: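 Mice carrying the transplanted tumor received test compound or vehicle. Survival was recorded in each group, and the value is the treated-group measurement divided by that of the vehicle-treated control group.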

[1] = dose: 50.0 mg/kg/injection, schedule: Q01DX005 (ip), vehicle: Klucel (hydroxypropylcellulose) (HPC)
[2] = dose: 100.0 mg/kg/injection, schedule: Q01DX005 (ip), vehicle: Klucel (hydroxypropylcellulose) (HPC)
[3] = dose: 200.0 mg/kg/injection, schedule: Q01DX005 (ip), vehicle: Klucel (hydroxypropylcellulose) (HPC)
[4] = dose: 50.0 mg/kg/injection, schedule: Q01DX005 (ip), vehicle: saline with Tween-80
[5] = dose: 100.0 mg/kg/injection, schedule: Q01DX005 (ip), vehicle: saline with Tween-80
[6] = dose: 200.0 mg/kg/injection, schedule: Q01DX005 (ip), vehicle: saline with Tween-80
[7] = dose: 25.0 mg/kg/injection, schedule: Q01DX005 (ip), vehicle: Klucel (hydroxypropylcellulose) (HPC)
[8] = dose: 50.0 mg/kg/injection, schedule: Q01DX009 (ip), vehicle: saline
[9] = dose: 100.0 mg/kg/injection, schedule: Q01DX009 (ip), vehicle: saline
[10] = dose: 200.0 mg/kg/injection, schedule: Q01DX009 (ip), vehicle: saline

Measured: T/C

COc1ccc2c(C)cc(N/N=C/c3ccc([N+](=O)[O-])o3)nc2c1
inactive: [1] 100 % of control | [2] 101 % of control | [3] 90 % of control

CCNC(=S)NN
inactive: dose: 3.13 mg/kg/injection, schedule: Q01DX009 (ip), vehicle: saline 106 % of control | dose: 6.25 mg/kg/injection, schedule: Q01DX009 (ip), vehicle: saline 114 % of control | dose: 12.5 mg/kg/injection, schedule: Q01DX009 (ip), vehicle: saline 105 % of control

COC(=O)c1nn(C)c(=O)[nH]c1=O
inactive: [4] 103 % of control | [5] 98 % of control | [6] 100 % of control

COc1ccc(NS(=O)(=O)c2ccc(NC(=O)NCCCl)cc2)nn1
inactive: [7] 98 % of control | [1] 98 % of control | [3] 98 % of control

CCCCCCCCCCCC(=O)NCC(=O)NC1C(CO)OC(Nc2ncnc3nc[nH]c23)C(O)C1O (stereo unspecified)
inactive: dose: 0.06 mg/kg/injection, schedule: Q01DX009 (ip), vehicle: water 93 % of control | dose: 0.12 mg/kg/injection, schedule: Q01DX009 (ip), vehicle: water 101 % of control | dose: 0.13 mg/kg/injection, schedule: Q01DX009 (ip), vehicle: other 103 % of control | dose: 0.25 mg/kg/injection, schedule: Q01DX009 (ip), vehicle: other 113 % of control | dose: 0.25 mg/kg/injection, schedule: Q01DX009 (ip), vehicle: water 99 % of control | dose: 0.5 mg/kg/injection, schedule: Q01DX009 (ip), vehicle: other 121 % of control | dose: 0.5 mg/kg/injection, schedule: Q01DX009 (ip), vehicle: water 99 % of control | dose: 1.0 mg/kg/injection, schedule: Q01DX009 (ip), vehicle: water 105 % of control | dose: 2.0 mg/kg/injection, schedule: Q01DX009 (ip), vehicle: other 100 % of control and 86 % of control | dose: 2.0 mg/kg/injection, schedule: Q01DX009 (ip), vehicle: water 124 % of control

COc1cccc2c1C(=O)c1c(OC)c(C=O)cc(OC)c1C2=O
inactive: dose: 50.0 mg/kg/injection, schedule: Q01DX009 (ip), vehicle: water 99 % of control | dose: 100.0 mg/kg/injection, schedule: Q01DX009 (ip), vehicle: water 100 % of control | dose: 200.0 mg/kg/injection, schedule: Q01DX009 (ip), vehicle: water 98 % of control

COC(=O)NN(C(=O)OC)C12CCCCC1N(C(=O)OC)N(C(=O)OC)c1c2ccc2cc(OC)ccc12 (stereo unspecified)
inactive: dose: 100.0 mg/kg/injection, schedule: Q01DX001 (ip), vehicle: Klucel (hydroxypropylcellulose) (HPC) 96 % of control | dose: 200.0 mg/kg/injection, schedule: Q01DX001 (ip), vehicle: Klucel (hydroxypropylcellulose) (HPC) 92 % of control | dose: 400.0 mg/kg/injection, schedule: Q01DX001 (ip), vehicle: Klucel (hydroxypropylcellulose) (HPC) 91 % of control

CC(=O)OCC(=O)[C@@]1(O)CC[C@H]2[C@@H]3C[C@@H](C)C4=CC(=O)C=C[C@]4(C)[C@H]3[C@@H](O)C[C@@]21C
inactive: dose: 100.0 mg/kg/injection, schedule: Q01DX009 (ip), vehicle: saline with Tween-80 100 % of control | dose: 200.0 mg/kg/injection, schedule: Q01DX009 (ip), vehicle: saline with Tween-80 100 % of control | dose: 400.0 mg/kg/injection, schedule: Q01DX009 (ip), vehicle: saline with Tween-80 100 % of control

CCCCCCCCCCCCCCC(Br)C(=O)O (stereo unspecified)
inactive: [8] 101 % of control | [9] 103 % of control

Cc1ncc2c(n1)-c1ccccc1OC2O (stereo unspecified)
inactive: [8] 103 % of control | [9] 91 % of control | [10] 100 % of control

CSc1cccc(NC(=O)Nc2nc3c(C)cccc3s2)c1
inactive: [1] 96 % of control | [2] 95 % of control | [3] 90 % of control

S=C(N/N=C\c1nc2ccccc2c2ccccc12)Nc1ccccc1
inactive: dose: 100.0 mg/kg/injection, schedule: Q04DX002 (ip), vehicle: Klucel (hydroxypropylcellulose) (HPC) 99 % of control | dose: 200.0 mg/kg/injection, schedule: Q04DX002 (ip), vehicle: Klucel (hydroxypropylcellulose) (HPC) 94 % of control | dose: 400.0 mg/kg/injection, schedule: Q04DX002 (ip), vehicle: Klucel (hydroxypropylcellulose) (HPC) 93 % of control

O=c1oc2ccc(Br)cc2cc1-n1nnc2cc([N+](=O)[O-])ccc21
inactive: [4] 90 % of control | [5] 89 % of control | [6] 89 % of control

COC1=C2CCC3c4cc(OC)c(OC)cc4CC[N+]3=C2CC1 (stereo unspecified)
inactive: [7] 97 % of control | [1] 99 % of control | [2] 113 % of control

C1COC2(CCC3(CC2)OCCO3)O1
inactive: dose: 25.0 mg/kg/injection, schedule: Q04DX003 (ip), vehicle: Klucel (hydroxypropylcellulose) (HPC) 100 % of control | dose: 50.0 mg/kg/injection, schedule: Q04DX003 (ip), vehicle: Klucel (hydroxypropylcellulose) (HPC) 103 % of control | dose: 100.0 mg/kg/injection, schedule: Q01DX009 (ip), vehicle: saline sonified 111 % of control | dose: 100.0 mg/kg/injection, schedule: Q04DX003 (ip), vehicle: Klucel (hydroxypropylcellulose) (HPC) 101 % of control | dose: 200.0 mg/kg/injection, schedule: Q01DX009 (ip), vehicle: saline sonified 100 % of control | dose: 200.0 mg/kg/injection, schedule: Q04DX003 (ip), vehicle: Klucel (hydroxypropylcellulose) (HPC) 100 % of control | dose: 400.0 mg/kg/injection, schedule: Q01DX009 (ip), vehicle: saline sonified 100 % of control | dose: 400.0 mg/kg/injection, schedule: Q04DX003 (ip), vehicle: Klucel (hydroxypropylcellulose) (HPC) 99 % of control

C1CNNCCNN1
inactive: [8] 112 % of control | [9] 106 % of control and 108 % of control and 90 % of control | [10] 109 % of control and 115 % of control and 89 % of control | dose: 400.0 mg/kg/injection, schedule: Q01DX009 (ip), vehicle: saline 112 % of control and 120 % of control and 93 % of control | dose: 800.0 mg/kg/injection, schedule: Q01DX009 (ip), vehicle: saline 121 % of control

COc1cc2c(c(OC)c1OC)-c1cc3c(cc1C(OC(C)=O)C1COC(=O)C1C2)OCO3 (stereo unspecified)
inactive: dose: 0.5 mg/kg/injection, schedule: Q04DX002 (ip), vehicle: acetone 97 % of control and 104 % of control | dose: 1.0 mg/kg/injection, schedule: Q04DX002 (ip), vehicle: acetone 102 % of control and 94 % of control | dose: 2.0 mg/kg/injection, schedule: Q04DX002 (ip), vehicle: acetone 97 % of control and 104 % of control

CSc1nc(N)nc2nc[nH]c12
inactive: dose: 100.0 mg/kg/injection, schedule: Q04DX003 (ip), vehicle: saline with Tween-80 104 % of control | dose: 200.0 mg/kg/injection, schedule: Q04DX003 (ip), vehicle: saline with Tween-80 122 % of control

O=C(CN(O)C(=O)c1ccccc1)OCc1ccccc1
inactive: dose: 12.5 mg/kg/injection, schedule: Q01DX009 (ip), vehicle: distilled water + Tween-80 97 % of control | dose: 25.0 mg/kg/injection, schedule: Q01DX009 (ip), vehicle: distilled water + Tween-80 99 % of control | dose: 50.0 mg/kg/injection, schedule: Q01DX009 (ip), vehicle: distilled water + Tween-80 99 % of control | dose: 100.0 mg/kg/injection, schedule: Q01DX009 (ip), vehicle: distilled water + Tween-80 101 % of control | dose: 200.0 mg/kg/injection, schedule: Q01DX009 (ip), vehicle: distilled water + Tween-80 101 % of control

O=CNC(Cc1ccccc1)C(=O)O (stereo unspecified)
inactive: [4] 94 % of control | [5] 102 % of control

O=C(NC(CC(NC(=O)OCc1ccccc1)NC(=O)OCc1ccccc1)NC(=O)OCc1ccccc1)OCc1ccccc1
inactive: dose: 60.0 mg/kg/injection, schedule: Q01DX005 (ip), vehicle: saline with Tween-80 89 % of control | dose: 120.0 mg/kg/injection, schedule: Q01DX005 (ip), vehicle: saline with Tween-80 91 % of control | dose: 240.0 mg/kg/injection, schedule: Q01DX005 (ip), vehicle: saline with Tween-80 103 % of control
